Experimental data published in patent publication US10208074B2, “Pyrazole compounds and method for making and using the compounds” (Rigel Pharmaceuticals, Inc., priority 2015, dated 2019).
Counter-ions that a name gives are not always drawn. Like-named read-outs stand apart in the source and are kept apart here.

How the values were obtained:
IL-23 (p19/p40) = test: IL23-p19 ELISA, Dendritic, LPS (compound screening using DC cells); type: cell-based, Human; settings: PBMC-derived DC cells, IFNγ primed, LPS 1 μg/ml, 18 hours, 10 pt, read-out: IL23-p19 ELISA, Dendritic, LPS, 10 pt, EC50
Summary of the method: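 IL-23 in supernatants quantified by sandwich ELISA (anti-p19 capture, biotinylated anti-p40 detection, chemiluminescent readout) after 18 h LPS (1 μg/ml) stimulation. Cells were monocyte-derived DCs (GM-CSF/IL-4, 7 d), IFNγ-primed 24 h and given compound 1 h before LPS; viability by CellTiter Glo.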

IL-23p19 = test: LPS induced IL23p19 in THP-1 cells (with IFNγ primed) assay; type: cell-based, Human; settings: THP-1 cells, IFNγ primed, LPS 1 ug/mL, 18 hours, 10 pt, read-out: IL23-p19 ELISA, THP1-IFNy, LPS, 10 pt EC50
Summary of the method: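 Readout is secreted IL-23p19, quantified by chemiluminescent sandwich ELISA after 18 h LPS (1 ug/mL) stimulation of THP-1 cells that had been IFNγ-primed (50 ng/mL, ~18 h) and given compound 1 h beforehand at 37 °C. EC50 derived by curve fit; cytotoxicity tracked with Cell Titer Glo.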

SMILES	EC50 (IL-23p19; Homo sapiens, THP-1, 18 h)	EC50 (IL-23 (p19/p40); Homo sapiens, 18 h)	also measured
COCCn1cc(NC(=O)c2ccc(-c3c[nH]nc3C)o2)c(-c2ccccn2)n1 [Compound I-6, N-(1-(2-methoxyethyl)-3-(pyridin-2-yl)-1H-pyrazol-4-yl)-5-(3-methyl-1H-pyrazol-4-yl)furan-2-carboxamide formic acid]	264 nM		EC50 (IL-23 (p19/p40); formic acid): 993 nM
CC(C)(O)Cn1cc(NC(=O)c2ccc(-c3cn[nH]c3)o2)c(-c2ccccn2)n1 [Compound I-3, N-(1-(2-hydroxy-2-methylpropyl)-3-(pyridin-2-yl)-1H-pyrazol-4-yl)-5-(1H-pyrazol-4-yl)furan-2-carboxamide]	424 nM	362 nM	
O=C(Nc1cn(C2COC2)nc1-c1ccccn1)c1csc(-c2cn[nH]c2)n1 [II-34, N-(1-(oxetan-3-yl)-3-(pyridin-2-yl)-1H-pyrazol-4-yl)-2-(1H-pyrazol-4-yl)thiazole-4-carboxamide]	86.1 nM	55.7 nM	
CCN(CC)CCn1cc(NC(=O)c2csc(-c3cn[nH]c3)n2)c(-c2ccccn2)n1 [II-117, N-(1-(2-(diethylamino)ethyl)-3-(pyridin-2-yl)-1H-pyrazol-4-yl)-2-(1H-pyrazol-4-yl)thiazole-4-carboxamide]		106 nM	EC50 (IL-23p19): 56.6 nM
Cc1n[nH]cc1-c1nc(C(=O)Nc2cn(C)nc2-c2ccccn2)cs1 [II-27, 2-(3-methyl-1H-pyrazol-4-yl)-N-(1-methyl-3-(pyridin-2-yl)-1H-pyrazol-4-yl)thiazole-4-carboxamide]	74.1 nM	331 nM	
COCCn1cc(NC(=O)c2ccc(-c3cnn(C(=O)OC(C)(C)COCc4ccc(OC)cc4)c3)o2)c(-c2ccccn2)n1 [Compound I-22, 1-((4-methoxybenzyl)oxy)-2-methylpropan-2-yl 4-(5-((1-(2-methoxyethyl)-3-(pyridin-2-yl)-1H-pyrazol-4-yl)carbamoyl)furan-2-yl)-1H-pyrazole-1-carboxylate]	204 nM	1550 nM	
CCO[C@H]1C[C@@H](n2cc(NC(=O)c3csc(-c4cnn(COP(=O)(O)O)c4)n3)c(-c3ccccn3)n2)C1 [II-84, (4-(4-((1-((1,3-cis)-3-ethoxycyclobutyl)-3-(pyridin-2-yl)-1H-pyrazol-4-yl)carbamoyl)thiazol-2-yl)-1H-pyrazol-1-yl)methyl phosphate Tris salt]			EC50 (IL-23 (p19/p40)): 304 nM; EC50 (IL-23p19): 85 nM
COC1CC(n2cc(NC(=O)c3ccc(-c4cn[nH]c4)o3)c(-c3ccccn3)n2)C1 (centres unmarked) [Compound I-75, N-(1-((1s,3s)-3-methoxycyclobutyl)-3-(pyridin-2-yl)-1H-pyrazol-4-yl)-5-(1H-pyrazol-4-yl)furan-2-carboxamide formate]			EC50 (IL-23 (p19/p40)): 19.5 nM; EC50 (IL-23p19): 102 nM
COCCn1cc(NC(=O)c2ccc(-c3cn[nH]c3)o2)c(-c2ncccn2)n1 [Compound I-7, N-(1-(2-methoxyethyl)-3-(pyrimidin-2-yl)-1H-pyrazol-4-yl)-5-(1H-pyrazol-4-yl)furan-2-carboxamide]	433 nM	399 nM	
CCN(CC)C(=O)n1cc(NC(=O)c2csc(-c3cn[nH]c3)n2)c(-c2ccccn2)n1 [II-128, N-(1-(diethylcarbamoyl)-3-(pyridin-2-yl)-1H-pyrazol-4-yl)-2-(1H-pyrazol-4-yl)thiazole-4-carboxamide]	1150 nM	2480 nM	
O=C(Nc1cn(C2CCOC2)nc1-c1nccs1)c1ccc(-c2cn[nH]c2)o1 (centres unmarked) [Compound I-120, 5-(1H-pyrazol-4-yl)-N-(1-(tetrahydrofuran-3-yl)-3-(thiazol-2-yl)-1H-pyrazol-4-yl)furan-2-carboxamide formate]	52.8 nM	94.8 nM	
COCCOCCn1cc(NC(=O)c2csc(-c3cn[nH]c3)n2)c(-c2nccs2)n1 [II-113, N-(1-(2-(2-methoxyethoxy)ethyl)-3-(thiazol-2-yl)-1H-pyrazol-4-yl)-2-(1H-pyrazol-4-yl)thiazole-4-carboxamide]	84.4 nM	288 nM	
O=C(Nc1c[nH]nc1-c1ccccn1)c1ccc(-c2cn[nH]c2)o1 [Compound I-47, 5-(1H-pyrazol-4-yl)-N-(3-(pyridin-2-yl)-1H-pyrazol-4-yl)furan-2-carboxamide]	392 nM	327 nM	
CCO[C@H]1C[C@@H](n2cc(NC(=O)c3csc(-c4cnn(COP(=O)(O)O)c4)n3)c(-c3ccccn3)n2)C1 [II-78, (4-(4-((1-((1,3-cis)-3-ethoxycyclobutyl)-3-(pyridin-2-yl)-1H-pyrazol-4-yl)carbamoyl)thiazol-2-yl)-1H-pyrazol-1-yl)methyl phosphate calcium salt]			EC50 (IL-23 (p19/p40); phosphate calcium salt): 79.9 nM; EC50 (IL-23p19; phosphate calcium salt): 165 nM
COc1ccc(Cn2cc(-c3nc(C(=O)Nc4cn(C5CC(OC)C5)nc4-c4ccccn4)cs3)cn2)cc1 (centres unmarked) [II-51, 2-(1-(4-methoxybenzyl)-1H-pyrazol-4-yl)-N-(1-(3-methoxycyclobutyl)-3-(pyridin-2-yl)-1H-pyrazol-4-yl)thiazole-4-carboxamide]	3610 nM	26600 nM	
O=C(Nc1cn(CCOCC(F)F)nc1-c1ccccn1)c1coc(-c2cn[nH]c2)n1 [III-8, N-(1-(2-(2,2-difluoroethoxy)ethyl)-3-(pyridin-2-yl)-1H-pyrazol-4-yl)-2-(1H-pyrazol-4-yl)oxazole-4-carboxamide]	400 nM	161 nM	
CCO[C@@H]1CC[C@H](n2cc(NC(=O)c3ccc(-c4cn[nH]c4)o3)c(-c3ccccn3)n2)C1 [Compound I-133, N-(1-((1S,3R)-3-ethoxycyclopentyl)-3-(pyridin-2-yl)-1H-pyrazol-4-yl)-5-(1H-pyrazol-4-yl)furan-2-carboxamide]			EC50 (IL-23 (p19/p40)): 386 nM; EC50 (IL-23p19): 80.6 nM
CCO[C@H]1C[C@@H](n2cc(NC(=O)c3csc(-c4cn[nH]c4F)n3)c(-c3ccccn3)n2)C1 [II-72, N-(1-((1s,3s)-3-ethoxycyclobutyl)-3-(pyridin-2-yl)-1H-pyrazol-4-yl)-2-(5-fluoro-1H-pyrazol-4-yl)thiazole-4-carboxamide]			EC50 (IL-23 (p19/p40)): 140 nM; EC50 (IL-23p19): 1140 nM
O=C(Nc1cn(C(F)F)nc1-c1ccccn1)c1ccc(-c2cn[nH]c2)o1 [Compound I-115, N-(1-(difluoromethyl)-3-(pyridin-2-yl)-1H-pyrazol-4-yl)-5-(1H-pyrazol-4-yl)furan-2-carboxamide]	91.3 nM	365 nM	
CCOCCn1cc(NC(=O)c2ccc(-c3cnn(COP(=O)(O)O)c3)o2)c(-c2ccccn2)n1 [Compound I-55, sodium (4-(5-((1-(2-ethoxyethyl)-3-(pyridin-2-yl)-1H-pyrazol-4-yl)carbamoyl)furan-2-yl)-1H-pyrazol-1-yl)methyl phosphate]			EC50 (IL-23 (p19/p40); phosphate): 801 nM; EC50 (IL-23p19; phosphate): 1200 nM
N#Cc1nn([C@H]2C[C@@H](O)C2)cc1NC(=O)c1csc(-c2cn[nH]c2)n1 [II-136, N-(3-cyano-1-((1s,3s)-3-hydroxycyclobutyl)-1H-pyrazol-4-yl)-2-(1H-pyrazol-4-yl)thiazole-4-carboxamide]	1220 nM	10700 nM	
COc1ccc(-c2nn(C)cc2NC(=O)c2ccc(-c3cn[nH]c3)o2)nc1 [Compound I-109, N-(3-(5-methoxypyridin-2-yl)-1-methyl-1H-pyrazol-4-yl)-5-(1H-pyrazol-4-yl)furan-2-carboxamide]	104 nM	22.1 nM	
CC(C)O[C@H]1C[C@@H](n2cc(NC(=O)c3csc(-c4cn[nH]c4)n3)c(-c3ccccn3)n2)C1 [II-76, N-(1-((1,3-cis)-3-isopropoxycyclobutyl)-3-(pyridin-2-yl)-1H-pyrazol-4-yl)-2-(1H-pyrazol-4-yl)thiazole-4-carboxamide]	52.4 nM	47.5 nM	
CC1(Cn2cc(-c3ccc(C(=O)Nc4cn(CC5(C)COC5)nc4-c4ccccn4)o3)cn2)COC1 [Compound I-48, 5-(1-((3-methyloxetan-3-yl)methyl)-1H-pyrazol-4-yl)-N-(1-((3-methyloxetan-3-yl)methyl)-3-(pyridin-2-yl)-1H-pyrazol-4-yl)furan-2-carboxamide formate]	5520 nM	7500 nM	
O=C(Nc1cn([C@H]2C[C@@H](O)C2)nc1-c1ccccn1)c1ccc(-c2cn[nH]c2)o1 [Compound I-32, N-(1-((1,3-cis)-3-hydroxycyclobutyl)-3-(pyridin-2-yl)-1H-pyrazol-4-yl)-5-(1H-pyrazol-4-yl)furan-2-carboxamide]	28.8 nM	83 nM	
